Source: patent publication US20230023092A1, “TREATMENT OF DEPRESSION AND OTHER VARIOUS DISORDERS WITH PSILOCYBIN” (COMPASS […], priority 2019, published 2023)

Tested on: healthy subjects
Assay: Phase 1 study: adverse events (TEAEs, MedDRA coded)
Type: in vivo, human
Details: 25 mg oral
Description: A Phase 1 randomized, double-blind, placebo-controlled study to evaluate the effect of psilocybin on cognitive and emotional processing as compared to placebo in healthy volunteers was conducted. The study investigated the short-term (Day 7) and long-term (Day 28) effects of moderate (10 mg) and high doses (25 mg) of psilocybin on key domains of cognition, such as episodic memory, attention, working and spatial memory, social cognition and elements of executive function, including cognitive flexibility.
Each subject was assigned 1 treatment bottle containing 5 capsules packaged in a double-blind fashion, depending on the randomized treatment arm, the bottle contained one of the following: • a. Psilocybin 10 mg: 2×5-mg oral psilocybin capsules plus 3×placebo capsules • b. Psilocybin 25 mg: 5×5-mg oral psilocybin capsules • c. Placebo: 5×placebo capsules
Each 5-mg oral psilocybin capsules comprised 5 mg crystalline psilocybin in the form or Polymorph A, 12.5 mg of SMCC 50, 79.5 mg of SMCC 90, 1 mg sodium starch glycolate, 1 mg colloidal silicon dioxide, and 1 mg sodium stearyl fumarate
Adverse events: Throughout the course of the study, all AEs were monitored and recorded. Each AE was classified according to the following criteria: • i. […] Moderate: The AE produces some impairment of functioning, but is not hazardous to the subject's health. • iii. Severe: The AE produces significant impairment of functioning or incapacitation and is a definite hazard to the subject's health.
Visit 3 (V3): Drug Administration (Day 0): The subject was asked to eat a light breakfast at least two hours prior to coming to the clinic for study drug administration. On Day 0 (V3), the subject underwent the SSTS, had vital signs obtained, medications reviewed, AEs recorded and eligibility reviewed prior to being randomized to study drug. The study drug was administered to up to six subjects simultaneously in individual beds separated by a curtain. The subject was invited to put on eyeshades and headphones, lie down and listen to calming music for the rest of the session (six hours). The subject was supported 1:1 with a chaperone and supervised by the study psychiatrist and lead therapist.
During administration of psilocybin, each subject received one-on-one support from a trained assisting therapist and each dosing session was supervised by a study psychiatrist and a lead therapist. The study drug was administered simultaneously to up to six participants as a single 5-capsule oral dose (10 mg psilocybin: 2×5-mg psilocybin capsules plus 3×placebo capsules; 25 mg psilocybin: 5×5-mg psilocybin capsules; placebo: 5×placebo capsules). Twenty-five dosing sessions were completed, with up to six participants dosed simultaneously per session. Each session lasted approximately 6 to 8 hours with subjects encouraged to relax and engage in introspection for the duration. After the acute effects of the study drug had subsided, subjects were discharged.

For `CN(C)CCc1c[nH]c2cccc(OP(=O)(O)O)c12` [Psilocybin, psilocybin], the “Affect lability, N (%)” value was 3 (10.0), the “Affect lability, worst severity Mild, Events” value was 2 and the “Affect lability, worst severity Mild, N (%)” value was 2 (6.7). For the same compound, the “Affect lability, worst severity Moderate, Events” value was 1, the “Affect lability, worst severity Moderate, N (%)” value was 1 (3.3) and the “Affect lability, worst severity Severe, Events” value was 0. The “Affect lability, worst severity Severe, N (%)” value was 0, the “Any Selected TEAE, Events” value was 106 and the “Any Selected TEAE, N (%)” value was 27 (90.0). For the same compound, the “Any TEAE leading to death, Events” value was 0, the “Any TEAE leading to death, N (%)” value was 0 and the “Any TEAE leading to study discontinuation, Events” value was 0. The “Any TEAE leading to study discontinuation, N (%)” value was 0, the “Any TEAE related to study treatment, Events” value was 208 and the “Any TEAE related to study treatment, N (%)” value was 29 (96.7). For the same compound, the “Any TEAE, Events” value was 217, the “Any TEAE, N (%)” value was 29 (96.7) and the “Any TEAE, worst severity Mild, Events” value was 14. The “Any TEAE, worst severity Mild, N (%)” value was 3 (10.0), the “Any TEAE, worst severity Moderate, Events” value was 52 and the “Any TEAE, worst severity Moderate, N (%)” value was 16 (53.3). For the same compound, the “Any TEAE, worst severity Severe, Events” value was 29, the “Any TEAE, worst severity Severe, N (%)” value was 10 (33.3) and the “Any serious TEAE related to study treatment, Events” value was 0. For the same compound, the “Any serious TEAE related to study treatment, N (%)” value was 0, the “Any serious TEAE, Events” value was 0 and the “Any serious TEAE, N (%)” value was 0. For the same compound, the “Any severe TEAE, Events” value was 29, the “Any severe TEAE, N (%)” value was 10 (33.3) and the “Change in sustained attention, Events” value was 0. For the same compound, the “Change in sustained attention, N (%)” value was 0, the “Depressed mood, Events” value was 2 and the “Depressed mood, N (%)” value was 2 (6.7). For the same compound, the “Dissociative identity disorder, Events” value was 2, the “Dissociative identity disorder, N (%)” value was 2 (6.7) and the “Emotional disorder, Events” value was 6. For the same compound, the “Emotional disorder, N (%)” value was 5 (16.7), the “Emotional disorder, worst severity Mild, Events” value was 1 and the “Emotional disorder, worst severity Mild, N (%)” value was 1 (3.3). For the same compound, the “Emotional disorder, worst severity Moderate, Events” value was 5, the “Emotional disorder, worst severity Moderate, N (%)” value was 4 (13.3) and the “Emotional disorder, worst severity Severe, Events” value was 0. The “Emotional disorder, worst severity Severe, N (%)” value was 0, the “Euphoric mood, Events” value was 8 and the “Euphoric mood, N (%)” value was 7 (23.3). The “Euphoric mood, worst severity Mild, Events” value was 3, the “Euphoric mood, worst severity Mild, N (%)” value was 3 (10.0) and the “Euphoric mood, worst severity Moderate, Events” value was 4. For the same compound, the “Euphoric mood, worst severity Moderate, N (%)” value was 4 (13.3), the “Euphoric mood, worst severity Severe, Events” value was 0 and the “Euphoric mood, worst severity Severe, N (%)” value was 0. The “Fatigue, Events” value was 8, the “Fatigue, N (%)” value was 8 (26.7) and the “Fatigue, worst severity Mild, Events” value was 3. The “Fatigue, worst severity Mild, N (%)” value was 3 (10.0), the “Fatigue, worst severity Moderate, Events” value was 5 and the “Fatigue, worst severity Moderate, N (%)” value was 5 (16.7). The “Fatigue, worst severity Severe, Events” value was 0, the “Fatigue, worst severity Severe, N (%)” value was 0 and the “Feeling abnormal, Events” value was 0. For the same compound, the “Feeling abnormal, N (%)” value was 0, the “Feeling abnormal, worst severity Mild, Events” value was 0 and the “Feeling abnormal, worst severity Mild, N (%)” value was 0. For the same compound, the “Feeling abnormal, worst severity Moderate, Events” value was 0, the “Feeling abnormal, worst severity Moderate, N (%)” value was 0 and the “Feeling abnormal, worst severity Severe, Events” value was 0. The “Feeling abnormal, worst severity Severe, N (%)” value was 0, the “Feeling of relaxation, Events” value was 1 and the “Feeling of relaxation, N (%)” value was 1 (3.3). For the same compound, the “Gastrointestinal disorders, Events” value was 5, the “Gastrointestinal disorders, N (%)” value was 5 (16.7) and the “Gastrointestinal disorders, worst severity Mild, Events” value was 4. For the same compound, the “Gastrointestinal disorders, worst severity Mild, N (%)” value was 4 (13.3), the “Gastrointestinal disorders, worst severity Moderate, Events” value was 1 and the “Gastrointestinal disorders, worst severity Moderate, N (%)” value was 1 (3.3). The “Gastrointestinal disorders, worst severity Severe, Events” value was 0, the “Gastrointestinal disorders, worst severity Severe, N (%)” value was 0 and the “General disorders and administration site conditions, Events” value was 18. The “General disorders and administration site conditions, N (%)” value was 15 (50.0), the “General disorders and administration site conditions, worst severity Mild, Events” value was 8 and the “General disorders and administration site conditions, worst severity Mild, N (%)” value was 8 (26.7). The “General disorders and administration site conditions, worst severity Moderate, Events” value was 7, the “General disorders and administration site conditions, worst severity Moderate, N (%)” value was 6 (20.0) and the “General disorders and administration site conditions, worst severity Severe, Events” value was 1. For the same compound, the “General disorders and administration site conditions, worst severity Severe, N (%)” value was 1 (3.3), the “Hallucination, Events” value was 2 and the “Hallucination, N (%)” value was 2 (6.7). For the same compound, the “Hallucination, auditory, Events” value was 4, the “Hallucination, auditory, N (%)” value was 4 (13.3) and the “Hallucination, auditory, worst severity Mild, Events” value was 1. For the same compound, the “Hallucination, auditory, worst severity Mild, N (%)” value was 1 (3.3), the “Hallucination, auditory, worst severity Moderate, Events” value was 3 and the “Hallucination, auditory, worst severity Moderate, N (%)” value was 3 (10.0). The “Hallucination, auditory, worst severity Severe, Events” value was 0, the “Hallucination, auditory, worst severity Severe, N (%)” value was 0 and the “Hallucination, gustatory, Events” value was 0. For the same compound, the “Hallucination, gustatory, N (%)” value was 0, the “Hallucination, olfactory, Events” value was 1 and the “Hallucination, olfactory, N (%)” value was 1 (3.3). The “Hallucination, tactile, Events” value was 4, the “Hallucination, tactile, N (%)” value was 4 (13.3) and the “Hallucination, visual, Events” value was 22. For the same compound, the “Hallucination, visual, N (%)” value was 21 (70.0), the “Hallucination, visual, worst severity Mild, Events” value was 3 and the “Hallucination, visual, worst severity Mild, N (%)” value was 3 (10.0). For the same compound, the “Hallucination, visual, worst severity Moderate, Events” value was 13, the “Hallucination, visual, worst severity Moderate, N (%)” value was 13 (43.3) and the “Hallucination, visual, worst severity Severe, Events” value was 5. The “Hallucination, visual, worst severity Severe, N (%)” value was 5 (16.7), the “Hallucination, worst severity Mild, Events” value was 0 and the “Hallucination, worst severity Mild, N (%)” value was 0. For the same compound, the “Hallucination, worst severity Moderate, Events” value was 2, the “Hallucination, worst severity Moderate, N (%)” value was 2 (6.7) and the “Hallucination, worst severity Severe, Events” value was 0. The “Hallucination, worst severity Severe, N (%)” value was 0, the “Headache, Events” value was 16 and the “Headache, N (%)” value was 15 (50.0). The “Headache, worst severity Mild, Events” value was 10, the “Headache, worst severity Mild, N (%)” value was 10 (33.3) and the “Headache, worst severity Moderate, Events” value was 5. The “Headache, worst severity Moderate, N (%)” value was 5 (16.7), the “Headache, worst severity Severe, Events” value was 0 and the “Headache, worst severity Severe, N (%)” value was 0. For the same compound, the “Hypoaesthesia, Events” value was 4, the “Hypoaesthesia, N (%)” value was 3 (10.0) and the “Hypoaesthesia, worst severity Mild, Events” value was 4. The “Hypoaesthesia, worst severity Mild, N (%)” value was 3 (10.0), the “Hypoaesthesia, worst severity Moderate, Events” value was 0 and the “Hypoaesthesia, worst severity Moderate, N (%)” value was 0. For the same compound, the “Hypoaesthesia, worst severity Severe, Events” value was 0 and the “Hypoaesthesia, worst severity Severe, N (%)” value was 0.
